2 compounds from patent publication US20190076496A1, “POLYSACCHARIDE DIGESTION INHIBITOR” (Q' SAI CO., LTD., priority 2016, published 2019) can be followed below.

Holding throughout (assay type): in vivo
Assay [1] concerns GK rat (Goto-Kakizaki rat). Nature of the assay: Measurement of blood glucose level after loading glucose (dextrose). Here is the method: Specifically, each GK rat was allowed to orally ingest the Astilbe thunbergii extract and dextrose and its influence on a change in the blood glucose level was analyzed (Approach 5). In this analysis, an experiment group orally ingesting anagliptin, a DPP-IV inhibitor, was used as a positive control.
[Approach 5: Measurement of Blood Glucose Level after Loading Glucose]
(1) Japanese Pharmacopeia water for injection (a negative control)
(2) A solution having anagliptin dissolved in the water for injection (a positive control); administered at 10 mg/kg body weight
(3) A suspension having, the hydrous ethanol extract of Astilbe thunbergii prepared in the Test Example 2, suspended in the water for injection; administered at 100 mg/kg body weight or 300 mg/kg body weight
Administration and Measurement of Blood Glucose Level
Each GK rat (8-week-old male rat, 7 rats/experimental group) was fasted for 18 hours and its fasting blood glucose level was then measured. Thereafter, the test substance was orally administered to the rat using a disposable gastric probe and a disposable syringe. […] Blood was collected from the tail vein 30, 60, 90 and 120 minutes after the administration of dextrose, and the blood glucose level was measured using a simple type blood glucose meter (NIPRO Freestyle Freedom Lite, FS Blood Glucose Sensor Light, manufactured by Nipro Corporation).

Assay [2] concerns GK rat (Goto-Kakizaki rat). Nature of the assay: Measurement of blood glucose level after loading sucrose. The conditions noted are these: 90 minutes after sucrose 2 g/kg; acarbose 10 mg/kg oral. Here is the method: Each GK rat was fasted for 18 hours and its fasting blood glucose level was then measured. Thereafter, the test substance was orally administered to the rat using a disposable gastric probe and a disposable syringe. Two minutes after the administration of the test substance, starch (dissolved in purified water, at 2 g/kg body weight) was administered in a single oral dose. Blood was collected from the tail vein 30, 60, 90 and 120 minutes after the administration of starch, and the blood glucose level was measured using a simple type blood glucose meter (NIPRO Freestyle Freedom Lite, FS Blood Glucose Sensor Light, manufactured by Nipro Corporation).
As described above, since the digestion process from starch to dextrose depends on the enzyme activities of both α-amylase and α-glucosidase, it cannot be ruled out from the results of Test Example 3 that the Astilbe thunbergii extract might inhibit only one of the enzyme activities in the body of an animal (the activity of the other enzyme activity cannot be inhibited). Accordingly, the digestion inhibitory effect of Astilbe thunbergii extract was analyzed using sucrose for which the digestion process depends only on α-glucosidase. Specifically, in the Approach 4, the blood glucose was measured using “sucrose (dissolved in purified water, at 2 g/kg body weight)” instead of “starch (dissolved in purified water, at 2 g/kg body weight)”. […]

The subject of assay [3] is GK rat (Goto-Kakizaki rat). Nature of the assay: Measurement of blood glucose level after loading starch. The conditions noted are these: 60 minutes after starch 2 g/kg; acarbose 10 mg/kg body weight oral. Here is the method:
Each GK rat (Goto-Kakizaki rat) was allowed to orally ingest an Astilbe thunbergii extract and immediately thereafter to orally ingest starch, and the blood glucose level up to 2 hours later was measured over time (Approach 4). In the case of a GK rat, since hyperglycemia is caused due to its low insulin secretion amount after meal, it is possible to sensitively analyze the influence of drugs on the digestion and absorption of saccharides.
[Approach 4: Measurement of Blood Glucose Level after Loading Starch]
GK rats (male, 5 weeks old) were obtained from Japan SLC, Inc. and preliminarily bred for 1 week before use. Seven rats per experimental group were used.
(1) Japanese Pharmacopeia water for injection (a negative control))
(2) A solution having acarbose dissolved in the water for injection (a positive control); administered at 10 mg/kg body weight
(3) A suspension having the hydrous ethanol extract of Astilbe thunbergii suspended in the water for injection; administered at 100 mg/kg body weight or 300 mg/kg body weight […]
Each GK rat was fasted for 18 hours and its fasting blood glucose level was then measured. […] Blood was collected from the tail vein 30, 60, 90 and 120 minutes after the administration of starch, and the blood glucose level was measured using a simple type blood glucose meter (NIPRO Freestyle Freedom Lite, FS Blood Glucose Sensor Light, manufactured by Nipro Corporation).

As to `Cc1cc2ncc(C(=O)NCC(C)(C)NCC(=O)N3CCC[C@H]3C#N)cn2n1` [anagliptin], the “glucose AUC compared with negative control” value in assay [1] (0 to 120 minutes after dextrose, anagliptin 10 mg/kg, extract 100 or 300 mg/kg) is listed as “significantly decreases the glucose AUC”. In addition, the “time course of blood glucose level compared with negative control” value in assay [1] (after dextrose 2 g/kg, anagliptin 10 mg/kg oral, decrease since 60 minutes later) is listed as “began to decrease earlier than that in the negative control”.
Turning to `C[C@H]1O[C@H](O[C@H]2[C@H](O)[C@@H](O)[C@@H](O[C@H]3[C@H](O)[C@@H](O)C(O)O[C@@H]3CO)O[C@@H]2CO)[C@H](O)[C@@H](O)[C@@H]1N[C@H]1C=C(CO)[C@@H](O)[C@H](O)[C@H]1O` (stereo partly shown) [acarbose], the blood glucose level in assay [2] worked out at 161 ± 45 mg/dL; in assay [3], 117 ± 43 mg/dL.
